melting point | Structure (SMILES)
40 °C | Cc1csc(C(=O)OC(C)C)c1N
234 to 237 °C | O=[N+]([O-])c1ccc2nc3c(nc2c1)OCC1CCCN31 (configuration not stated)
> 320 °C | CN(C)CCC(=O)Nc1ccc2c(=O)c3ccc(NC(=O)CCN(C)C)cc3[nH]c2c1
146 to 149 °C | CN(C(N)=O)C1Nc2ccc(Cl)cc2Oc2ccccc21 (configuration not stated)
92 to 93 °C | Cc1ccc(C(=C/C=C/C=O)c2ccc(C)cc2)cc1
59 to 61 °C | NCCCNC(c1ccccc1)(c1ccccc1)c1ccccc1
153 to 154 °C | NC(=O)c1cc(OCCCN2CCN(c3cccc4sccc34)CC2)c2ccccc2n1
52.5 to 54 °C | COCCOCn1c(Cl)c(C=O)c2ccccc21
294 °C | Cc1nc2cnccc2n1-c1ccc(O)cc1F
104 to 112 °C | CCOc1cc2c(cc1OC)C(c1ccc(C(=O)N(C(C)C)[C@@H](C)CO)cc1)=N[C@@H]1CCN(C)C[C@H]21
89 to 90.5 °C | CN1C(=O)Cc2cccc(C(=O)c3ccccc3)c21
136 to 138 °C | C=CC(NC(C)=O)C(=O)NCc1ccccc1 (configuration not stated)
244 to 251 °C | Cc1cc(CCNc2ncnc3c(F)ccc(F)c23)ccc1O
> 300 °C | COc1ccc2nc3[nH]nc(N)c3cc2c1
140 to 141 °C | O=C(NCCO)c1cccc(-c2cccc3cc(Cc4cccc(C(F)(F)F)c4)oc23)c1
> 260 °C | Nc1ccc(-c2nc3c(s2)C(=O)c2ccccc2C3=O)o1
158 to 159 °C | CCC(=O)c1ccc2cc(O)ccc2c1
87.5 to 89 °C | CN(C)CCOc1ccc2c(=O)c3ccc(OCCN(C)C)cc3oc2c1
229 to 230 °C | COc1cc2c(cc1OC)=C1C(C#N)SC(=N)N1CC=2 (configuration not stated)
217 to 218 °C | O=C1C(Cc2ncccc2Br)c2ccccc2C12COc1cc3c(cc12)OCCO3 (configuration not stated)
134 to 136 °C | CC(C)(C)c1cc(C=O)c(O)c(S(C)(=O)=O)c1
118 to 120 °C | Cc1cc(Br)c([N+](=O)[O-])c(Br)n1
134 to 136 °C | C=Cn1cc(C(=O)OCC)c(=O)c2c(C)c(F)c(F)c(F)c21
236 °C | COc1cc2c(C=O)c[nH]c2c2c1OCCC2=O

melting point | Structure (SMILES)
133 to 135 °C | O=C(CN1CCN(CC(=O)N2CCC3(CC2)Cn2cc([N+](=O)[O-])nc2O3)CC1)Nc1ccc(C(F)(F)F)cc1
207 to 208 °C | O=C(NC12CC3CC(CC(C3)C1)C2)c1cc(O)c(O)c([N+](=O)[O-])c1
118 to 121 °C | O=C(NCC1Cc2cc(Cl)c3c(c2O1)CCC3)OCc1ccccc1 (configuration not stated)
155 to 157 °C | CCCCOCCOc1ccc(-c2ccc(N3CCOCC3)c(C=CC(=O)O)c2)cc1
97 to 100 °C | C[C@@H](OS(C)(=O)=O)C(=O)N1C(=O)N(C)C[C@H]1C(=O)OC(C)(C)C
178 to 179 °C | COc1ccc2c(c1)c(Cc1nc(-c3ccc(Br)cc3)cs1)c(C)n2Cc1ccc(Br)cc1
91 to 92 °C | CCC(C(C)=CC(CNC(=O)c1cccnc1F)=NO)[N+](=O)[O-] (configuration not stated)
147 °C | CS(=O)c1cc(OCC(O)CNC2CCN(c3ccc(NS(=O)(=O)c4ccc(Br)cc4)cn3)CC2)ccc1O (configuration not stated)
160 to 161 °C | CNC(=O)N1CC(Oc2ccc(C(F)(F)F)cc2Cl)C1
112 to 114 °C | OCc1ccc(-c2ncn(-c3ccc(OC(F)(F)F)cc3)n2)cc1
191 to 192 °C | CCc1nnc(C2=C(OC(=O)c3ccccc3)c3ccccc3S(=O)(=O)N2C)o1
80 °C | COc1ccc([C@@]2(C)CNC(=O)O2)cc1OC1CCCC1
190 to 193 °C | CC(=Cc1ccc2c(c1)S(=O)(=O)c1cc(C=C(C)c3ccccc3)ccc1N2C)c1ccccc1
275 °C | CC(=O)Nc1ccc(NC(=O)C=C2CC(C(=O)OCc3ccccc3)Nc3cc(Cl)cc(Cl)c32)cc1 (racemic)
61 to 63 °C | CN1CCN(Cc2ccc(Cl)cc2Cl)C(C2(C)NCCN2)C1 (configuration not stated)
220 to 221 °C | Cc1nn(CCNS(C)(=O)=O)c(-c2ccc(F)cc2)c1-c1ccc2c(c1)NC(=O)CO2
155 to 158 °C | CCc1nc2c(cnn2CC)c(NC2CCOCC2)c1CNC(=O)c1cccc(C(=O)NCc2ccc(F)c(-c3cccc(CN4CCN(CC)CC4)c3)c2)c1
204 to 205 °C | CC(C)(C)NC(=O)NC(C)(C)C#N
292 to 293 °C | N#Cc1c(-c2ccc(N)cc2)cc(-c2ccccc2O)nc1NC(=O)c1cccs1
169 to 171 °C | N#Cc1cncc(C2OC(CO)C(O)C2O)c1 (configuration not stated)
183 to 187 °C | COc1ccc(-c2sc3c(c2CN(C)Cc2ccccc2)c(=O)c(C(C)O)cn3Cc2ccccc2F)cc1 (configuration not stated)
127 to 130 °C | O=Cc1c(O)ccc2cccnc12
76 to 78 °C | CCCC(=O)c1cnc2c(OCCCN3CCCCC3)cccc2c1Nc1ccccc1C
92 to 93 °C | CN(C)CCOc1c2c(nc3ccccc13)C(C)(C)OC2

melting point | Structure (SMILES)
163 to 164 °C | CC(C)C(N)=C(C#N)C#N
92 °C | CCOC[C@H]1CN(c2ccc(OCc3ccccc3)cc2)C(=O)O1
188 to 189 °C | CC1(C)C(=O)Nc2ccc(-c3cccc(Cl)c3)cc21
184 to 186 °C | Cc1ccc(C(=O)Nc2ccc(NCC(C)O)c(C(F)(F)F)c2)cc1Nc1nccc(-c2cccnc2)n1 (configuration not stated)
268 to 269 °C | CC(C)(O)c1ccc(-c2cnc3c(n2)N(CC2CCOCC2)CC(=O)N3)cn1
47 to 48 °C | O=C(Cl)N1CC(Sc2ccc(Cl)cc2)C1
110 to 112 °C | O=C(CCl)Nc1cccc([N+](=O)[O-])c1
80 to 83 °C | O=c1[nH]c(=O)n(C2OC(CO)C(O)C2F)cc1C=CBr (configuration not stated)
168 to 169 °C | COC(=O)Cn1nnc(NC(=O)C(c2ccccc2)c2ccccc2)n1
121 to 123 °C | COc1ccc(Sc2cccc(C(=O)O)c2)cc1
162 to 163 °C | CCN(CC)CCOc1ccc(Nc2ncc3c(n2)N(c2ccccc2)C(=O)N(c2c(Cl)cccc2Cl)C3)cc1
186 to 187 °C | Oc1cccc(-c2c(-c3ccccc3F)cnc3c(C(F)(F)F)cccc23)c1
106 to 109 °C | Oc1ccc(NCC2Cc3ccccc3C2)cc1
153 to 155 °C | CCc1nc2c(C)c(N)c(C)nc2[nH]1
133 to 135 °C | COc1cc(/C=C/C(=O)/C=C/c2cc(OC)c(OCCO)c(OC)c2)cc(OC)c1OCCO
146 to 147 °C | CCOC(=O)CC1CN=C(c2cc3cccc(N(C)S(=O)(=O)c4cccnc4)c3[nH]2)S1 (configuration not stated)
197 to 198 °C | O=C(NCc1ccccc1OC(F)(F)F)[C@@H]1CCCN(c2cccc3c2C(=O)N(Cc2ccncc2)C3=O)C1
144 to 148 °C | CN(Cc1sc2c(=O)c(C(=O)NCc3ccc(Cl)cc3)cn(C)c2c1CN)C[C@@H](O)c1ccccn1
145 to 150 °C | CCOC(=O)c1ccc(Cl)nn1
222 to 224 °C | O=c1ccc(-c2c(-c3ccccc3)nn3ccccc23)c[nH]1
91 to 94 °C | COc1cccc(C2=C(c3ccc(C(=O)N4Cc5cccn5Cc5ccccc54)cc3C)CCCC2)c1
202 °C | O=C1c2ccccc2C(O)N1c1cccc(C(F)(F)F)c1 (configuration not stated)
125 °C | O=C(O)C(=O)N1CCC(=Cc2ccccc2)CC1
183 to 185 °C | CC1(CCCN)NC(=O)NC1=O (configuration not stated)
